Measured values from US8916552B2, “Pharmaceutical combinations” (Astex Therapeutics Limited, priority 2006, dated 2014).
Where a name gives a salt, the structure may show the parent alone. Read-outs that look alike come from different tables or passages of the source.

Legend:
[1] = Hygroscopicity and rate of solubility of salt forms of compound of formula (1); assay type: physicochemical
[2] = antitumour agent; cited from earlier work
HCT116 cell line = assay: Anti-proliferative activity, Alamar Blue assay; assay type: cell-based; conditions: Homo sapiens, HCT-116, 72 h, read-out: IC50 against the HCT116 cell line
Experimental: The anti-proliferative activities of compounds for use in the combinations of the invention can be determined by measuring the ability of the compounds to inhibition of cell growth in a number of cell lines such as the human colon cancer cell line HCT116. […] The method is based on the ability of viable cells to reduce resazurin to its fluorescent product resorufin. […] The number of viable cells is determined by Alamar Blue assay as before. Cell lines can be obtained from the ECACC (European Collection of cell Cultures).

[3] = target: T1, Human Hsp90α N-terminal domain (Homo sapiens, UniProt P07900); assay: Isothermal titration calorimetry (ITC) binding to Hsp90; conditions: pH 7.4
T1 construct: purification of the Human Hsp90α N-terminal domain were performed according to published methods; made in house
Experimental: The ability of the compounds for use in the combinations of the invention to bind to human Hsp90 proteins was determined using isothermal titration calorimetry.
Isothermal titration calorimetry (ITC) experiments were performed with a VP-ITC titration calorimeter (Microcal Inc., Northampton, Mass., USA). […] All solutions were filtered and degassed prior to a titration being carried out. The enthalpy change resulting from each injection of ligand was obtained through integration of the calorimetric signal. Data were analysed using Origin 7.0 (Microcal Software Inc., Northampton, Mass.). Heats of dilution were estimated using the final injections of each individual titration and subtracted before data fitting. Different ITC experimental formats were employed in order to obtain compound dissociation constants (Kd's) over a wide range of affinities. […] In this type of experiment the stoichiometry parameter (N) was locked at 1 for data fitting.

[4] = Solid-state stability of crystalline L-lactate forms of compound of formula (1); assay type: physicochemical; conditions: lactic acid salts of compound of formula (1)
From the text: The term ‘stable’ or ‘stability’ as used herein includes chemical stability and solid state (physical) stability. The term ‘chemical stability’ means that the compound can be stored in an isolated form, or in the form of a formulation in which it is provided in admixture with for example, pharmaceutically acceptable carriers, diluents or adjuvants as described herein, under normal storage conditions, with little or no chemical degradation or decomposition’ for example for a period of six months or more, more usually twelve months or more, for example eighteen months or more. ‘Solid-state stability’ means the compound can be stored in an isolated solid form, or the form of a solid formulation in which it is provided in admixture with, for example, pharmaceutically acceptable carriers, diluents or adjuvants as described herein, under normal storage conditions, with little or no solid-state transformation (e.g. hydration, dehydration, solvatisation, desolvatisation, crystallisation, recrystallisation or solid-state phase transition).

[5] = assay type: physicochemical
From the text: Samples for X-ray powder diffraction (XRPD) data collection were gently ground by marble mortar and loaded into a crystallographic capillary (from Hampton Research, Quartz or Glass Type 10, 0.4 or 0.7 mm diameter). Diffraction patterns were collected at room temperature using CuKα radiation (λ=1.5418 Å) from a Rigaku rotating anode RU3HR, Osmic blue confocal optics, ¼ c goniometer and a Rigaku HTC image plate detector. 2D Images were collected while spinning φ axis with a detector to crystal distance of 250 mm. Data collection was controlled by CrystalClear software and 2D images were converted to 1D plot (2θ vs. Intensity) by Datasqueeze (intensity averaged over the azimuthal angle 0<χ<360° for 2θ range 3-30° in 0.02° steps). In house program AstexXRP was used for manipulation and visualisation of 1D XRPD patterns.
It is nominally a tri-hydrate because there are 3 crystal water positions in the asymmetric unit, but they are not 100% occupied at room temperature and laboratory humidity. A saturated solution of form FL1 in methanol:water 9:1 was prepared at room temperature. Slow precipitation with approximately 4 volumes of acetone gave form FL2 which is stable in air.
A saturated solution of form FL1 in THF was prepared at room temperature. Slow precipitation with approximately 4 volumes of heptane gave form FL3.

OVCAR-3 tumour cells = OVCAR-3 tumour cells in which PKB is amplified; concentrations of 50 and 100 microM; cited from earlier work
PKC = conditions: data published 2002; read-out: IC50, inhibition of PKC activity; cited from earlier work
PKA = conditions: data published 2002; read-out: IC50, inhibition of PKA activity; cited from earlier work
PKG = conditions: data published 2002; read-out: IC50, inhibition of PKG activity; cited from earlier work
[6] = mice; doses 10 times more than were needed for antitumour activity; cited from earlier work
[7] = system: Acute Promyelocytic Leukemia (APL); conditions: cited from earlier work
[8] = system: P-glycoprotein-overexpressing subline of leukemic cell line CCRF-CEM; conditions: P-glycoprotein-overexpressing subline of CCRF-CEM (Chou et al. 1998); cited from earlier work
[9] = clinical studies; cited from earlier work

Q: Which hygroscopicity [1] does the source give for CC(C)c1cc(C(=O)N2Cc3ccc(CN4CCN(C)CC4)cc3C2)c(O)cc1O [(2,4-dihydroxy-5-isopropyl-phenyl)-[5-(4-methyl-piperazin-1-ylmethyl)-1,3-dihydro-isoindol-2-yl]-methanone L-lactate salt] here?
A: non-hygroscopic

Q: And the rate of solubility ([1]; compared with free base and other salts tested (hydrochloric acid, sulphuric acid))?
A: better rate of solubility than the free base and other salts tested

Q: For CCN[C@H]1CO[C@@H](O[C@H]2[C@H](O[C@H]3C#C/C=C\C#C[C@]4(O)CC(=O)C(NC(=O)OC)=C3/C4=C\CSSSC)O[C@H](C)[C@@H](NO[C@H]3C[C@H](O)[C@H](SC(=O)c4c(C)c(I)c(O[C@@H]5O[C@@H](C)[C@H](O)[C@@H](OC)[C@H]5O)c(OC)c4OC)[C@@H](C)O3)[C@@H]2O)C[C@@H]1OC [Calicheamicin], which “potency relative to adriamycin” value [2] is on record?
A: over 1,000 times

Q: With CC(C)c1cc(C(=O)N2Cc3ccccc3C2)c(O)cc1O [Example 5, (1,3-Dihydro-isoindol-2-yl)-(2,4-dihydroxy-5-isopropyl-phenyl)-methanone] as the molecule, how does the IC50 (HCT116 cell line) read?
A: < 1 µM

Q: For CC(C)c1cc(C(=O)N2Cc3ccc(C(=O)N4CCNCC4)cc3C2)c(O)cc1O [Example 54, (2,4-dihydroxy-5-isopropyl-phenyl)-[5-(piperazine-1-carbonyl)-1,3-dihydro-isoindol-2-yl]-methanone hydrochloride], which IC50 (HCT116 cell line) is on record?
A: < 1 µM

Q: For CC(C)c1cc(C(=O)N2Cc3ccc(CN4CCN(C)CC4)cc3C2)c(O)cc1O [Example 55, (2,4-dihydroxy-5-isopropyl-phenyl)-[5-(4-methyl-piperazin-1-ylmethyl)-1,3-dihydro-isoindol-2-yl]-methanone], which Kd [3] is on record?
A: < 0.1 µM

Q: Which “stability of crystalline form” value [4] does the source give for CC(C)c1cc(C(=O)N2Cc3ccc(CN4CCN(C)CC4)cc3C2)c(O)cc1O [FL1, (2,4-dihydroxy-5-isopropyl-phenyl)-[5-(4-methyl-piperazin-1-ylmethyl)-1,3-dihydro-isoindol-2-yl]-methanoneL-lactate] here?
A: stable

Q: What about the “stability of crystal form at 40° C. and 75% RH” value [5] of the same molecule?
A: stable in air and at 40 °C and 75% RH for at least one month

Q: What about the “stability of crystal form in air” value [5] of the same molecule?
A: stable in air

Q: Which “stability of crystalline form” value [4] does the source give for CC(C)c1cc(C(=O)N2Cc3ccc(CN4CCN(C)CC4)cc3C2)c(O)cc1O [FL2, (2,4-dihydroxy-5-isopropyl-phenyl)-[5-(4-methyl-piperazin-1-ylmethyl)-1,3-dihydro-isoindol-2-yl]-methanoneL-lactate] here?
A: stable

Q: And the “stability of crystal form in air” value [5]?
A: stable in air

Q: For CC(C)c1cc(C(=O)N2Cc3ccc(CN4CCN(C)CC4)cc3C2)c(O)cc1O [FL3, (2,4-dihydroxy-5-isopropyl-phenyl)-[5-(4-methyl-piperazin-1-ylmethyl)-1,3-dihydro-isoindol-2-yl]-methanoneL-lactate], which “stability of crystalline form” value [4] is on record?
A: unstable

Q: What about the “stability of crystal form in air” value ([5]; 2 days) of the same molecule?
A: transforms in air into form FL1

Q: What does the source list for O=S(=O)(NCCNCC=C(c1ccccc1)c1ccccc1)c1cccc2cnccc12 [NL-71-101]?
A: induction of apoptosis (OVCAR-3 tumour cells): induced apoptosis; IC50 (PKC): 104 µM; IC50 (PKA): 9 µM; IC50 (PKG): 36 µM

Q: Which “adverse effects in vivo” value [6] does the source give for CCOC(=O)c1ccc2[nH]c3c(OC)c4[nH]c5ccc(C(=O)OCC)cc5c4cc3c2c1 [SR-13668] here?
A: no adverse effects

Q: Which “remissions induced in APL patients” value [7] does the source give for CC1=C(/C=C/C(C)=C/C=C/C(C)=C/C(=O)O)C(C)(C)CCC1 [Tretinoin, all-trans retinoic acid] here?
A: 64-100%

Q: For C/C1=C/C[C@@H](/C(C)=C/c2csc(C)n2)OC(=O)C[C@H](O)C(C)(C)C(=O)[C@H](C)[C@@H](O)[C@@H](C)CCC1 [desoxyepothilone B], which IC50 [8] is on record?
A: 0.017 µM

Q: Which half-life [9] does the source give for Perifosine [KRX-0401] here?
A: ~100 h
